Measurements taken from ChEMBL document CHEMBL4808206, “Novel Substituted 3,4-Dihydroquinazoline Derivatives for Treating Hepatitis B Virus Infection” (ACS Med Chem Lett, 2021).

system: Hepatitis B virus; assay: Antiviral activity against HBV infected in human HepDES19 cells assessed as reduction in HBV cccDNA production by measuring inhibition of HBeAg secretion incubated for 5 days by ELISA; type: functional, organism-based; details: HepDES19, 120 h

Row | Compound | IC50
1 | CC1(C(=O)O)NC(c2ccc(Br)cc2)=Nc2c(Cl)cccc21 (stereo unspecified) | 130 nM
2 | NC(=O)C1NC(c2cccc(Br)c2)=Nc2cc(C(F)(F)F)ccc21 (stereo unspecified) | 260 nM
3 | COc1ccc2c(c1)CCN(C1=Nc3c(Cl)cccc3C(C)N1)C2=O (stereo unspecified) | 27 nM
4 | O=C(O)C1NC(c2ccc(N3CCCC3)nc2)=Nc2c(Cl)cccc21 (stereo unspecified) | 50 nM
5 | COC(=O)C1NC(c2ccc(Br)cc2)=Nc2c(Cl)cccc21 (stereo unspecified) | 330 nM
6 | NC(=O)C1NC(c2ccc(Br)cc2)=Nc2c(Cl)cccc21 (stereo unspecified) | 70 nM
